Assay results as given in patent US20100093973A1, “POLY(AMINO ACID) COMPOUND HAVING INHIBITORY ACTIVITY ON ABSORPTION OF PHOSPHORUS AND PHOSPHORUS ABSORPTION INHIBITOR” (priority 2007, published 2010).
Where a name gives a salt, the structure may show the parent alone.

How the values were obtained:
in vitro = assay type: cell-based; conditions: dog
Protocol: MDCK Cells were inoculated into wells of a 96-well plate filled with D-MEM/F12 culture medium (available from GIBCO Company) supplemented with 10% FBS (available from TISSUE CULTURE BIOLOGICALS Company). After the cultivation of the cells for 3 days in a CO2 incubator, the culture medium was removed, a culture medium, in which each candidate substance (synthesized compound) had been dissolved, was added, followed by the cultivation for one day. To each well, there was added 10 μL of Cell Count Reagent SF (available from NAKARAI TESUKU K.K.), followed by the cultivation thereof for 2 hours and the subsequent determination of the absorbance observed at a wavelength of 460 nm. The IC50 values each were calculated on the basis of these measured values.

absorption of phosphorus = test: Evaluation of efficacy as phosphorus absorption inhibitors: serum radioactivity AUC (0-120 min) after oral 32P NaH2PO4 in rats, inhibitory rate; assay type: in vivo; conditions: rats of SD line, oral dose 100 mg/5 mL/kg, 32P NaH2PO4 given orally 5 min later, serum radioactivity AUC 0-120 min vs control
Protocol: Seven-week-old male rats of SD line (available from SANKYO Labo-Service Co., Ltd.), as test animals, were kept and acclimatized using the usual feed (Solid CRF-1 available from ORIENTAL Yeast Co., Ltd.) and they were used in the following tests after they were fasted overnight. Each candidate substance (synthesized compound) dissolved in distilled water for injection (Otsuka Pharmaceutical Co., Ltd.) was orally administered in a dose of 100 mg/5 mL/kg or 50 mg/5 mL/kg and after 5 minutes from the administration, 3 mg/3 mL/kg, 1 MBq/kg of an NaH2PO4 solution containing ^32P (available from PerkinElmer Company) was orally administered. Subsequently, the blood was collected with the elapse of time through the caudal vein of the test animal to thus obtain the serum thereof and the radioactivity of 40 μL of the serum was determined using a liquid scintillation counter. The inhibitory rate (%) for each candidate compound was calculated on the basis of the foregoing measured values according to the following equation: […]

IC50 at 1 day (in vitro) | Structure (SMILES) | Inhibitory Rate (%) of Phosphorus Absorption (absorption of phosphorus)
> 10000 µg/mL | NCCCC[C@H](N)C(=O)NCCCC[C@H](NC(=O)[C@@H](N)CCCCN)C(=O)N(CCCN)CCCCN(CCCN)C(=O)[C@H](CCCCNC(=O)[C@@H](N)CCCCN)NC(=O)[C@@H](N)CCCCN [Example 12, SPM(Lys)6 Hydrochloride] | 43%
> 10000 µg/mL | NCCCC[C@H](N)C(=O)NCCCC[C@H](N)C(=O)N(CCCCN(CCCNC(=O)[C@@H](N)CCCCN)C(=O)[C@@H](N)CCCCNC(=O)[C@@H](N)CCCCN)CCCNC(=O)[C@@H](N)CCCCN [Example 6, SPM(Lys)6 Hydrochloride] | 30%
> 10000 µg/mL | NCCCC[C@H](NC(=O)[C@@H](N)CCCCN)C(=O)NCCCC[C@H](N)C(=O)NCCCN(CCCCN(CCCNC(=O)[C@@H](N)CCCCNC(=O)[C@H](CCCCN)NC(=O)[C@@H](N)CCCCN)C(=O)[C@@H](N)CCCCNC(=O)[C@H](CCCCN)NC(=O)[C@@H](N)CCCCN)C(=O)[C@@H](N)CCCCNC(=O)[C@H](CCCCN)NC(=O)[C@@H](N)CCCCN [Example 29, SPM(Lys)12 Hydrochloride] | 55%

Structure (SMILES) | IC50 at 1 day (in vitro) | Inhibitory Rate (%) of Phosphorus Absorption (absorption of phosphorus)
NCCC[C@H](N)C(=O)NCCC[C@H](N)C(=O)NCCCN(CCCCN(CCCNC(=O)[C@@H](N)CCCNC(=O)[C@@H](N)CCCN)C(=O)[C@@H](N)CCCNC(=O)[C@@H](N)CCCN)C(=O)[C@@H](N)CCCNC(=O)[C@@H](N)CCCN [Example 14, SPM(Orn)8 Hydrochloride] | > 10000 µg/mL | 46%
